# Results published in US20210212967A1, “Treatment of Irritable Bowel Syndrome” (Gruenenthal GmbH, priority 2010, published 2021).
# Assays:
# [1] = clinical studies; cited from earlier work
# [2] = biological target: recombinantly produced p-opioid receptor (Homo sapiens, UniProt P35372); settings: relative to morphine; cited from earlier work
# [3] = system: isolated guinea pig ileum; test: Twitch contractions of the electrically stimulated isolated guinea pig ileum
# Experimental: It was investigated whether tapentadol is able to modulate gastrointestinal motility.
# Male guinea pigs (PBW, Charles River, KiBlegg, FRG) weighing 250-350 g were used for the study. The animals were kept under standard housing conditions: light/dark rhythm (06.00-18.00 h light, 18.00-6.00 h dark); room temperature 22±2° C., rel. air humidity 55±5%; 15 air changes per hour, air movement <0,2 m/sec. The animals were given water and an exclusive diet of “Herilan RM 204” (Eggersmann Company, Rinteln/FRG) ad libitum. Before experimental preparation they were kept in groups of up to 5 animals in type IV Makrolon cages (Ebeco Company, Castrop-Rauxel, FRG). There were at least 4 days between delivery and test day.
# Tapentadol hydrochloride was dissolved in aqua bidest. Final concentrations in the organ bath ranged from 3·10^−8 to 10^−5 M (cumulative drug application). As opioid antagonist naloxone (10^−6 M) was used.
# A four-compartment organ bath (Dept. Biotechnology, Grunenthal GmbH) was employed with 20 ml acrylic glass compartments, organ supports and force transducers (F10 Force transducers, Type 375, HSE, FRG) for the determination of isometric contractions. The organ baths were filled and emptied by means of a semi-automatic dosing arrangement. The nutrient medium in the organ baths was kept at room temperature. In a nutrient storage chamber and in the organ baths the nutrient solution was gassed with carbogen through a frit from 30 min before commencement of the experiment.
# The nutrient solution had the following composition:
# Parameter: contraction force [g]
# Guinea pigs were killed in CO2-atmosphere and the ileum was dissected free from adhering tissue, removed and suspended in the organ bath. After an incubation period of at least 30 min, transmural stimulation pulses were delivered with a duration of 1 ms and an amplitude of 180 mA at 0.03 Hz (Stimulator A310, WPI, FRG) and isometric contractions (Twitch reactions) were recorded. The preparations were pre-tensioned with 1 g. […]
# Data were calculated as the mean stimulated contraction force during the period of 4 to 6 min. p. appl. and expressed as percentage of the pre-value. […] All results were expressed as means±s.e.m. of 4 single experiments. For determination of 1050 values, regression lines (y=f log x) were constructed and 1050 values with s.e.m. were calculated using a computer-assisted regression analysis program (Grünenthal GmbH). The reversal of the test compound's activity by the antagonist was expressed as the percentage of the effects of the combination of agonist and antagonist referred to the effects of the test compound alone in the highest concentration according to the following formula: […]
# [4] = system: visceral hyperalgesia induced by rectal administration of mustard oil in mice; test: Mustard oil colitis (visceral pain), curative treatment; assay type: in vivo
# Excerpt: (§1) The effects of tapentadol hydrochloride on visceral hyperalgesia were studied, which was induced by rectal administration of mustard oil in mice (according to Laird J M, Martinez-Caro L, Garcia-Nicas E, Cervero F. (2001) A new model of visceral pain and referred hyperalgesia in the mouse. Pain 92: 335-42). The typical visceral pain behaviour was quantified in three parameters: During the first minutes after mustard oil administration spontaneous visceral pain behaviour occurs. Following this period of spontaneous pain, referred allodynia and hyperalgesia can be quantified by means of von Frey filaments of different strength stimulating the abdomen of the mice.
# (§2) Male NMRI mice (28-38 g body weight) from a commercial breeder (Iffa Credo, France) were used. The animals were housed under standardized conditions: light/dark cycle (06.00-18.00 h light, 18.00-06.00 h dark), room temperature 20-24° C., relative air humidity 35-70%, 15 air changes per hour, air movement <0,2 m/sec, tap water and standard diet ad libitum, macrolon type 4 cages with maximally 30 animals per cage. There were at least 5 days between delivery and start of the experiment.
# (§3) Tapentadol hydrochloride was dissolved in vehicle solution and injected intra-venously. • Doses: 2.15/ 4.64/ 10.0 mg/kg i.v. (prophylactic) 10.0/ 21.5/ 31.6 mg/kg i.v. (curative) • Administration volume: 10 ml/kg
# (§4) Vehicle solution: 0.9% NaCl solution (Fresenius, Bad Homburg, FRG)
# (§5) Mustard oil was dissolved in vehicle solution and administered intra-rectally Dose: 50 μl of a 3.5 Vol-% solution per animal • Vehicle solution: PEG 200
# Animals were habituated to the test conditions for 20-30 min and stimulated with von Frey filaments onto the abdominal wall. 10 stimulations with von Frey filaments of 1, 4, 8, 16, and 32 mN were applied in ascending order (i.e. 10×1 mN, 10×4 mN, etc.). Animals with more than 25 positive reactions during this phase were excluded. Vaseline was applied in the perianal area to avoid the stimulation of somatic areas with the irritant chemical. Colitis was induced by rectal administration of […] mustard oil (3.5%). Control animals were treated with vehicle (50 μl PEG200). Group sizes were n =7 for all experiments.
# Tapentadol hydrochloride or vehicle was given intravenously (i.v.) 4 hours after mustard oil. Seven animals were tested per group. The following parameters were counted 10 minutes before and at different time points after administration of the test compound or vehicle: • 1. Referred allodynia (number of reactions): counting of withdrawal reactions against 10 stimulations with a 1 mN von Frey filament. • 2. Referred hyperalgesia (referred pain score): counting and scoring of withdrawal reactions against 10 stimulations with a 16 mN von Frey filament (Score 1-3, 1=lifting of abdomen, licking, movement, 2=extrusion or flinching of hind paws, slight jumping, strong licking, 3=strong jumping, vocalisation). Percent of maximal possible effect (% MPE) was calculated for each animal based on the baseline taken 10 min before administration of compound or vehicle.
# Significance was calculated by paired T-test (* 0.05≥p>0.01; ** 0.01≥p>0.001; *** p≤0.001. ED50 values and 95% confidence intervals were calculated by linear regression.
# [5] = system: visceral hyperalgesia induced by rectal administration of mustard oil in mice; test: Mustard oil colitis (visceral pain), prophylactic treatment; assay type: in vivo; settings: i.v. 5 min before mustard oil
# Excerpt: as §1, §2, §3, §4, §5
# Animals were habituated to the test conditions for 20-30 min and stimulated with von Frey filaments onto the abdominal wall. 10 stimulations with von Frey filaments of 1, 4, 8, 16, and 32 mN were applied in ascending order (i.e. 10×1 mN, 10×4 mN, etc.). Animals with more than 25 positive reactions during this phase were excluded. […]
# Tapentadol hydrochloride or vehicle was given intravenously (i.v.) 5 min before mustard oil. […] The following parameters were counted: […]
# Chain of recombinantly produced p-opioid receptor (P35372 whole entry): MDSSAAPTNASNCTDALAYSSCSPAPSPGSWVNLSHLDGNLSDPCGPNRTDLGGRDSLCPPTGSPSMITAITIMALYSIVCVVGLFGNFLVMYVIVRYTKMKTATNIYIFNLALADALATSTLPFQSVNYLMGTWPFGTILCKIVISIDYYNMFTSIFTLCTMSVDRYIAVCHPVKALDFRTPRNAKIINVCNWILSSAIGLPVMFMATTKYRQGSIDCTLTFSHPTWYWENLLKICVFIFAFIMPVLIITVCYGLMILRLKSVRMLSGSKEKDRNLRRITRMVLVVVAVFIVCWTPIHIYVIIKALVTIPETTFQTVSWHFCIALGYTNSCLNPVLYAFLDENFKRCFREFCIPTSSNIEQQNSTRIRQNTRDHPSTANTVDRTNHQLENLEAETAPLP
SMILES,pain-alleviating action relative to morphine [1],"affinity, times less than that of morphine [2] [times]","IC50 ([3]; Cavia porcellus, electrically induced twitch contractions, cumulative application 3·10^−8 to 10^−5 M, mean ± s.e.m. of 4 experiments) [nM]","% reversal by naloxone ([3]; naloxone 10^−6 M added after the last application, without wash out) [%]",threshold concentration ([3]; reduction of electrically induced contractions),"Twitch contraction remaining at highest concentration (% of pre-value) ([3]; twitch reaction remaining at highest concentration 10^−5 M, mean ± s.e.m., hydrochloride) [% pre-value]",efficacy reached at highest dose ([4]; 31.6 mg/kg i.v.),"ED50 referred allodynia (95% confidence intervals) ([4]; i.v. 4 hours after mustard oil, 1 mN von Frey filament)","ED50 referred hyperalgesia (95% confidence intervals) ([4]; i.v. 4 hours after mustard oil, 16 mN von Frey filament)","duration of action in the referred hyperalgesia ([4]; i.v., time course)","time of maximal efficacy after administration ([4]; i.v., time course) [min]","ED50 referred allodynia (95% confidence intervals) ([5]; 1 mN von Frey filament, 20-40 min after mustard oil)","ED50 referred hyperalgesia (95% confidence intervals) ([5]; 16 mN von Frey filament, 20-40 min after mustard oil)",ED50 spontaneous visceral pain behaviour (95% confidence intervals) ([5]; scored 2-12 min after mustard oil)
"CC[C@@H](c1cccc(O)c1)[C@@H](C)CN(C)C [tapentadol, (1R,2R)-3-(3-dimethylamino-1-ethyl-2-methyl-propyl)-phenol]",two to three times less than that of morphine,18,–,–,–,–,–,–,–,–,–,–,–,–
"CC[C@@H](c1cccc(O)c1)[C@@H](C)CN(C)C.Cl [tapentadol hydrochloride, (1 R,2R)-3-(3-dimethylamino-1-ethyl-2-methyl-propyl)-phenol hydrochloride]",–,–,1490 ± 200,33.3,about 10^−7 M,5.77±1.26,Almost full efficacy,21.7 (19.3-25.0) mg/kg i.v.,16.3 (12.5-19.9) mg/kg i.v.,more than 2 h,20,3.75 (2.76-4.75) mg/kg i.v.,3.93 (2.32-5.69) mg/kg i.v.,1.47 (0.51-2.28) mg/kg i.v.
